Article PMC8160969, “Organoruthenium Complexes with Benzo-Fused Pyrithiones Overcome Platinum Resistance in Ovarian Cancer Cells” (Cancers, 2021)

Target: T1, thioredoxin reductase (TrxR) (Rattus norvegicus, UniProt O89049)
T1 construct: gene Txnrd1; commercially available rat liver TrxR
T1 sequence (O89049 1-499): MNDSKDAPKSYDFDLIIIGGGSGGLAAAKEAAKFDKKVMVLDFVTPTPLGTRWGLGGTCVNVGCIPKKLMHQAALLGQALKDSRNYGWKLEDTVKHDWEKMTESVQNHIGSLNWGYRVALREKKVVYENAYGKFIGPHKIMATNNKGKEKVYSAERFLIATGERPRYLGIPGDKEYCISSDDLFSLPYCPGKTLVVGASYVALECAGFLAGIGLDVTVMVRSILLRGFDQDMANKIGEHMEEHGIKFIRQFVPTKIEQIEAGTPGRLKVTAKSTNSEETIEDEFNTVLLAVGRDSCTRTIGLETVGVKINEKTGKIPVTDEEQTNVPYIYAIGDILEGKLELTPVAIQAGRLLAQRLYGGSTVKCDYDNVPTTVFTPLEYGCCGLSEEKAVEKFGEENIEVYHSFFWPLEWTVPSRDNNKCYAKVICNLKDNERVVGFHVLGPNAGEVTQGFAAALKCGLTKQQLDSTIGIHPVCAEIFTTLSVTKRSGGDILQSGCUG
Assay: DTNB reduction assay with NADPH and rat liver TrxR, […] min exposure, absorbance at […] nm
Assay type: biochemical

SMILES: Cc1ccc(C(C)C)cc1.[Cl][Ru-]1[O]N2C=Cc3ccccc3C2=[S+]1 [1a, organoruthenium(II) chlorido complex 1a]
- IC50: 4.1 ± 0.16 µM
